Experimental data as given in paper PMC13586173, “Synthetic cannabinoid receptor agonists inhibit the cardiac voltage-gated potassium channel hERG” (Acta Pharmacologica Sinica, 2026).
Values joined by “and” are separate entries in the source; they are usually repeats but may differ in a detail not shown here. Equal entries are not always repeated. “Also recorded” adds a separate entry of the source. Where two headings read alike, the source gives them in different places.

Key:
hERG (KV11.1) = hERG (KV11.1) (Homo sapiens, UniProt Q12809); test: Automated planar patch-clamp (APC, QPatch II 48), voltage-ladder protocol, CHO cells stably expressing human hERG; conditions: for hERG channel Efficacy (max reduction in Gmax) Gmin: 0 = complete reduction; for effect on Gmax of hERG (in words): APC concentration-response, 1.11 to 30 µM
hERG (KV11.1), sequence (Q12809 whole entry): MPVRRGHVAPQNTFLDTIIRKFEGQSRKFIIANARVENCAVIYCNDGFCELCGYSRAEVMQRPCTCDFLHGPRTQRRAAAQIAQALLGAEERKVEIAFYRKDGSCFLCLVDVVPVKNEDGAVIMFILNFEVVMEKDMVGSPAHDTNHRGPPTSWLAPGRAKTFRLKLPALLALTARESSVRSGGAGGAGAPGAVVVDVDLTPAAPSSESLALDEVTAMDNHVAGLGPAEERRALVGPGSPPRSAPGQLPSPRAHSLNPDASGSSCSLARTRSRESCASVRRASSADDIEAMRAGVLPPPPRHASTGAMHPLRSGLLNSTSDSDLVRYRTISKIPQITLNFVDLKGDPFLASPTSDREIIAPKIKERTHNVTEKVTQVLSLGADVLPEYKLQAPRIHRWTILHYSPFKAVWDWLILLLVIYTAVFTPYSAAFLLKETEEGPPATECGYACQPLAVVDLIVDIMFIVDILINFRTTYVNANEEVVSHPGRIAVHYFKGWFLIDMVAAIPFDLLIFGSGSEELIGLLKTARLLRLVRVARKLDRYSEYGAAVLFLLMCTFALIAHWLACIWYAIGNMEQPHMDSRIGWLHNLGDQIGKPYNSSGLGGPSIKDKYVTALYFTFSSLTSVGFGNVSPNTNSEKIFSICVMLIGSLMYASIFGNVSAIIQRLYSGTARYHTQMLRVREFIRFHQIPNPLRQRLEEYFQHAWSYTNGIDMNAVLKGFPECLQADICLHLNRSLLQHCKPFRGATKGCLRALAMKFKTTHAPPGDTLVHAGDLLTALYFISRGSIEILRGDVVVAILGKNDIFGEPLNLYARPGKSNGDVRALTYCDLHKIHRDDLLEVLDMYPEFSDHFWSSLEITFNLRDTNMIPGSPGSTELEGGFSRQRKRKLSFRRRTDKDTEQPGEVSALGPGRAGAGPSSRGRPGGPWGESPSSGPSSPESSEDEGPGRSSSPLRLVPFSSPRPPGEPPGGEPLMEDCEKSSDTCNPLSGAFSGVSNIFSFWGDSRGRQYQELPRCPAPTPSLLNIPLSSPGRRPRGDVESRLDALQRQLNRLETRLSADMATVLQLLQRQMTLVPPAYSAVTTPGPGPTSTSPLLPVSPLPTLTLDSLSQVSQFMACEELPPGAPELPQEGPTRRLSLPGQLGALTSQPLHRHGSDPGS
Excerpt: To assess the effect of a large set of SCRAs on hERG (see SI Table I and SI Fig. S1 for a list of the 36 included SCRAs and corresponding structures), we used the automated planar patch-clamp (APC) technique on mammalian Chinese hamster ovary (CHO) cells stably expressing human hERG. […] We employed a voltage-ladder protocol to obtain information on SCRA effects on the channel’s voltage dependence of activation (V50) and maximal conductance (Gmax) (both determined from Boltzmann fits of the instantaneous tail currents; see Methods for details).
Stably expressing cell lines “CHO-hERG DUO” (here referred to as hERG; gene: KCNH2) and “CHO-KVLQT1/mink” (here referred to as KV7.1/KCNE1; gene: KCNQ1/KCNE1), (B’SYS GmBH, Witterswil, Switzerland) were used to study whole-cell K^+ currents on a QPatch II 48 APC system (Sophion Bioscience A/S, Ballerup, Denmark). Cell culture and passaging were performed in accordance with standard operating procedures. Cells were harvested in serum-free medium with Detachin^TM (Genlantis, CA, USA) immediately prior to experiments. For MPC on transient cell lines, CHO-K1 CCL-61 cells (ATCC, Manassas, VA, USA) were cultured in Ham’s F-12 medium supplemented with 10% fetal bovine serum (FBS) and 100 U/mL penicillin–100 µg/mL streptomycin (Gibco, Thermo Fisher Scientific, Waltham, MA, USA). Transfection was carried out using JetOPTIMUS® reagent (Polyplus, Strasbourg, France) according to the manufacturer’s protocol. Briefly, 80,000 cells were seeded per well in a 12-well plate and transfected with 300 ng of pcDNA3-GFP plasmid, 700 ng of pcDNA3-hERG plasmid with either the wild-type or mutant channels (S624A, S649A, or Y652A), and […] of JetOPTIMUS. After 8 h, cells were detached and reseeded at a density of 30,000 cells per well onto several poly-D-lysine-coated glass coverslips placed in a 12-well plate. For the CB1 receptor activity assay, the AequoScreen® recombinant Chinese hamster ovary (CHO) K1 cell line, stably expressing the human CB1 receptor (ES-110-A), was used (Revvity, Sollentuna, Sweden).
Automated patch-clamp recordings were performed at 22 °C. Freshly harvested cell suspensions (2–3 million cells/mL) were prepared for experiments by the QPatch II 48 automated cell preparation unit. Cells were centrifuged for 150 s at 150 × g and washed twice with the extracellular recording solution. Cells were handled by the integrated pipetting robot and added to the 48 experiment sites on the planar patch-clamp consumable QPlate. Each experiment site contained an individual pair of recording electrodes and a silicon/glass biochip embedded in the flow channels. Single-cell patch recordings (n = 1 is defined as one single-cell patch) and population patch recordings (up to 10 cells per well, n = 1 is defined as one population patch) were performed for hERG and for KV7.1/KCNE1, respectively. Cells were applied, positioned and sealed to the patch holes by a mild suction protocol; whole-cell access was then achieved by a stronger suction pulse.
The intracellular solution contained (in mM): 100 KCl, 4.3 CaCl2, 1.4 MgCl2, 25/10 KOH/EGTA, 24 KF, 10 HEPES, and 4 Mg-ATP (hERG) or 4 Na-ATP (KV7.1/KCNE1). […] The compounds were pre-diluted in DMSO, and the final concentration of DMSO (0.3%) was equal in all recording solutions to control for vehicle effects. The compounds made no contact with plastics following dilution in extracellular solution.
An overview of experimental conditions is provided in SI Table VII, Square voltage pulses in a voltage ladder protocol were used to study current/voltage (I(V)) relationships. Each voltage protocol was first run three times in the presence of vehicle (extracellular solution supplemented with 0.3% DMSO), the 3rd serving as the baseline. Voltage protocols were repeated in the presence of 4 cumulatively rising concentrations of test compound, followed by application of vehicle for recovery.

human CB1 receptor = target: T1, human CB1 receptor (Homo sapiens, UniProt P21554); test: AequoScreen intracellular calcium release assay, CHO-K1 cells stably expressing CB1; format: cell-based
T1 construct: host or cells: CHO-K1 stably expressing CB1, apoaequorin and Gα16
T1 sequence (P21554 whole entry): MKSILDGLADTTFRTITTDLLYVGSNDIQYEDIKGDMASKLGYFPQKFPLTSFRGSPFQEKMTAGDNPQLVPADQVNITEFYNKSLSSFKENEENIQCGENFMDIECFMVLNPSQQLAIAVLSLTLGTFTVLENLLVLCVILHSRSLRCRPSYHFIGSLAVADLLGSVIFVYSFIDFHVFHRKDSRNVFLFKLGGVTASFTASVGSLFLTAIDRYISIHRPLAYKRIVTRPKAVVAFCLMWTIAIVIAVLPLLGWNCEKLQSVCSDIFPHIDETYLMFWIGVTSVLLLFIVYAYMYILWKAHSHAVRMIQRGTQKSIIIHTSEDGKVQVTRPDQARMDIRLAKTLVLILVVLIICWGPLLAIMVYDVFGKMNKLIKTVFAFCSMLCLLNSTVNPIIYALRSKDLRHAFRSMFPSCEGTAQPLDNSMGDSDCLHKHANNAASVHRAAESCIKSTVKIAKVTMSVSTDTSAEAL

KV7.1/KCNE1 = KV7.1/KCNE1 (Homo sapiens, UniProt P51787); test: Automated patch-clamp (APC, population patch), CHO cells stably expressing human KV7.1/KCNE1; format: cell-based; conditions: for KV7.1/KCNE1 channel Efficacy (max reduction in Gmax) Gmin, marked *: * Greatest efficacy achieved with a concentration between 10 and 30 µM (no fit); for Gmax effect on hERG versus KV7.1/KCNE1 (in words): 10 µM, both channels by APC; for KV7.1/KCNE1 channel Efficacy (max reduction in Gmax) Gmin: 1 = no reduction of Gmax, 0 = complete reduction
KV7.1/KCNE1, sequence (P51787 whole entry): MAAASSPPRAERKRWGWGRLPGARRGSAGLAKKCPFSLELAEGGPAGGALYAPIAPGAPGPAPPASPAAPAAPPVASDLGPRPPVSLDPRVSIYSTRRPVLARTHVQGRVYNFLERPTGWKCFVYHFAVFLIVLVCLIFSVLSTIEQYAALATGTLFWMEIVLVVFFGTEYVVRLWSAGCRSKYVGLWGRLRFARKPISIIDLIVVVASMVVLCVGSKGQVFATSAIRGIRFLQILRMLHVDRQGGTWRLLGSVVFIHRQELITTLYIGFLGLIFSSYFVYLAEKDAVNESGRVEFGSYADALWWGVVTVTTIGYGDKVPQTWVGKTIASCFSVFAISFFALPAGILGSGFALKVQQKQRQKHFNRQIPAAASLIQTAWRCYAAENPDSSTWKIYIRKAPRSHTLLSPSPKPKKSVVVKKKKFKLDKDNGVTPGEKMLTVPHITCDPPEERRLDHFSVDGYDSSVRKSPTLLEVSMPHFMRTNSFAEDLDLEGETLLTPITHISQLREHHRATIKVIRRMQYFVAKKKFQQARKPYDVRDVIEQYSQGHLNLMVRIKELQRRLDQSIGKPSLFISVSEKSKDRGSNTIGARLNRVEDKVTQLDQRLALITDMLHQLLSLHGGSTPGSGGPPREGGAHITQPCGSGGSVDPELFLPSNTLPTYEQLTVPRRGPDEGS
Protocol: Both hERG and KV7.1/KCNE1 contribute to cardiomyocyte repolarization (Fig. 1g). Inhibition of KV7.1/KCNE1 alone can be proarrhythmic. Moreover, under conditions with impaired hERG function, upregulation of KV7.1/KCNE1 has been proposed to partially compensate for the loss of hERG [38, 39]. […] To assess if SCRAs also affect KV7.1/KCNE1, we used mammalian CHO cells stably expressing human KV7.1/KCNE1. […] At 10 µM, 7 of the SCRAs caused a significant positive shift in V50 (Fig. 5e), with the largest shift induced by MDMB-[…] (ΔV50 = +10.3 ± 1.6 mV).
Automated patch-clamp recordings were performed at 22 °C.
For the KV7.1/KCNE1 voltage ladder protocol (SI Table VII) the solutions were present for 60 s before recording started. KV7.1/KCNE1 cells were kept at a holding voltage of −90 mV, with brief hyperpolarizing steps to −100 mV for 540 ms (to calculate ohmic leakage). […] The time between compound application and the first voltage protocol was 60 s. Time between sweeps was 15 s. The voltage ladder protocol was executed every 220 s.
For Gmax (rel.), N was set to –1. For ΔV50, N was set to 1.

[1] = best fit, 1 = no reduction of Gmax, APC, 22 °C
[2] = read-out: hERG channel Potency IC50 (Gmax reduction), APC, 22 °C, best fit
[3] = read-out: CB1 receptor Potency EC50
[4] = normalized to maximum of JWH-018, n ≥ 3 (JWH-030 n = 2)
[5] = normalized to median EC50 of JWH-018, n ≥ 3 (JWH-030 n = 2), read-out: CB1 receptor Potency EC50
[6] = CB1 receptor Potency EC50, normalized to median EC50 of JWH-018, n ≥ 3 (JWH-030 n = 2)
[7] = APC, best fit, read-out: KV7.1/KCNE1 channel Potency IC50 (Gmax reduction)
[8] = experimentally observed effect of 10 µM, used in ORd simulation

Compound	hERG channel Efficacy (max reduction in Gmax) Gmin (hERG (KV11.1); [1])	IC50 (hERG (KV11.1); [2])	KV7.1/KCNE1 channel Efficacy (max reduction in Gmax) Gmin, marked * (KV7.1/KCNE1)	CB1 receptor Efficacy Emax (human CB1 receptor; [4])	EC50 (human CB1 receptor; [5])	KV7.1/KCNE1 channel Efficacy (max reduction in Gmax) Gmin (KV7.1/KCNE1; best fit)	other results
CC(C)[C@H](NC(=O)c1nn(CC2CCCCC2)c2ccccc12)C(N)=O	0.00	51.2 µM	0.72				CB1 receptor Efficacy Emax (human CB1 receptor): 108 % JWH-018; EC50 (human CB1 receptor; [3]): 0.00898 µM
CC(C)(C)[C@H](NC(=O)c1nn(CC2CCCCC2)c2ccccc12)C(N)=O	0.13	11.3 µM	0.93				CB1 receptor Efficacy Emax (human CB1 receptor): 107 % JWH-018; EC50 (human CB1 receptor; [3]): 0.00387 µM
COC(=O)[C@@H](NC(=O)c1cn(CCCCF)c2ccccc12)C(C)(C)C [4F-MDMB-BUTICA]	0.35	26.2 µM	0.87	115 % JWH-018	0.0167 µM		
O=C(N/N=C1\C(=O)N(CCCCCF)c2ccccc21)c1ccccc1 [5F-BZO-POXIZID]	0.29		0.83	113 % JWH-018			IC50 (hERG (KV11.1)): 0.9 µM; effect on Gmax of hERG (in words) (hERG (KV11.1)): concentration-dependent inhibitory effects on Gmax; also recorded: prominent inhibitory Gmax effects; EC50 (human CB1 receptor; [6]): 0.193 µM; Gmax effect on hERG versus KV7.1/KCNE1 (in words) (KV7.1/KCNE1): effects only on hERG
CC(C)(NC(=O)c1nn(CCCCCF)c2ccccc12)c1ccccc1 [5F-Cumyl-PINACA]	0.00			112 % JWH-018		0.13	IC50 (hERG (KV11.1)): 15.5 µM; EC50 (human CB1 receptor; [6]): 0.00223 µM and 0.0022 µM; IC50 (KV7.1/KCNE1): 43.5 µM; effect on KV7.1/KCNE1 (in words) (KV7.1/KCNE1; APC): well-defined concentration–response relationships for both effects
CC(C)[C@H](NC(=O)c1cn(CC2CCCCC2)c2ccccc12)C(N)=O [AB-CHMICA]	0.64	8.2 µM		110 % JWH-018	0.0201 µM	0.46	IC50 (KV7.1/KCNE1; [7]): 16.2 µM
CC(C)[C@H](NC(=O)c1nn(Cc2ccc(F)cc2)c2ccccc12)C(N)=O [AB-FUBINACA]	0.00	30.4 µM		108 % JWH-018	0.00894 µM	0.15	IC50 (KV7.1/KCNE1; [7]): 40.8 µM
C=CCCCn1nc(C(=O)NC(C(N)=O)C(C)(C)C)c2ccccc21 (stereo not shown) [ADB-4en-PINACA]	0.52	9.1 µM	1.13	117 % JWH-018	0.0174 µM		effect on Gmax of hERG (in words) (hERG (KV11.1)): no or limited effects
CCCCn1nc(C(=O)NC(C(N)=O)C(C)(C)C)c2cc(Br)ccc21 (stereo not shown) [ADB-5'Br-BUTINACA]	0.36	40.1 µM	0.80	110 % JWH-018	0.018 µM		
CC(C)(C)[C@H](NC(=O)c1n[nH]c2ccc(Br)cc12)C(N)=O [ADB-5'Br-INACA]	0.70	24.5 µM	1.04	111 % JWH-018	2.29 µM		effect on Gmax of hERG (in words) (hERG (KV11.1)): no or limited effects
CC(C)(C)C(NC(=O)c1cn(CC2CCCCC2)c2ccccc12)C(N)=O (stereo not shown) [ADB-CHMICA]	0.48	5.2 µM		110 % JWH-018	0.0157 µM	0.4	IC50 (KV7.1/KCNE1; [7]): 13.4 µM
CC(C)(C)[C@H](NC(=O)c1nn(Cc2ccc(F)cc2)c2ccccc12)C(N)=O [ADB-FUBINACA]	0.25	13.7 µM	0.81	106 % JWH-018	0.00497 µM		
CCCCCCn1nc(C(=O)NC(C(N)=O)C(C)(C)C)c2ccccc21 (stereo not shown) [ADB-HEXINACA]	0.037			117 % JWH-018		0.41	IC50 (hERG (KV11.1)): 15.8 µM; remaining IKr (hERG Gmax) (hERG (KV11.1); [8]): 63%; EC50 (human CB1 receptor; [6]): 0.0394 µM; IC50 (KV7.1/KCNE1): 1.99 µM; remaining IKs (KV7.1/KCNE1 Gmax) (KV7.1/KCNE1; [8]): 52%
O=C(c1cccc2ccccc12)c1cn(CCCCCF)c2ccccc12 [AM-2201]	0.38	1.3 µM	0.92	99.7 % JWH-018	0.0258 µM		Gmax effect on hERG versus KV7.1/KCNE1 (in words) (KV7.1/KCNE1): effects only on hERG
CCCCCn1nc(C(=O)NC23CC4CC(CC(C4)C2)C3)c2ccccc21 [APINACA]			0.88	108 % JWH-018	0.0304 µM		hERG channel Efficacy (max reduction in Gmax) Gmin, marked * (hERG (KV11.1); * Greatest efficacy achieved with a concentration between 10 and 30 µM (no fit), 1 = no reduction of Gmax): 0.90; effect on Gmax of hERG (in words) (hERG (KV11.1)): non-inhibitor
C=CCCCN1C(=O)/C(=N\NC(=O)c2ccccc2)c2ccccc21 [BZO-4en-POXIZID]	0.64		0.79	112 % JWH-018			IC50 (hERG (KV11.1)): 3.9 µM; effect on Gmax of hERG (in words) (hERG (KV11.1)): concentration-dependent inhibitory effects on Gmax; EC50 (human CB1 receptor; [6]): 1.7 µM
CCCCCCN1C(=O)C(=NNC(=O)c2ccccc2)c2ccccc21 [BZO-HEXOXIZID]				84.3 % JWH-018	5.13 µM	0.44	hERG channel Efficacy (max reduction in Gmax) Gmin, marked ? (hERG (KV11.1); ? Unreliable values (fit failed QC, extrapolated)): 0.00; CB1 EC50 (in words) (human CB1 receptor): low micromolar; IC50 (KV7.1/KCNE1; [7]): 3 µM
